Measurements published in paper PMC11984392, “EphA2-targeted alpha-particle theranostics for enhancing PDAC treatment” (Theranostics, 2025).
Like-named read-outs stand apart in the source and are kept apart here. *1 amine or outer side, *2 acyl side, *3 side chain or, on linkers, in order; H or OH if unused. Where a SMILES comes first, the peptide text is derived from it. Bridges are numbered along the chain shown (N, C = ends). [ ]: non-standard residue; d: D form. The star is where a group is joined. TATA = O=C(CC[*:1])N1CN(C(=O)CC[*:2])CN(C(=O)CC[*:3])C1; NOTA = O=C(O)CN1CCN(CC(=O)O)CCN(CC(=O)*)CC1; Hyp = O=C(O)[C@@H]1C[C@@H](O)CN1; hArg = N=C(N)NCCCC[C@H](N)C(=O)O; PEG2 = NCCOCCOCCC(=O)O; Sar = CNCC(=O)O

Columns and labels:
[1] = In vitro stability of radiotracers in saline / formulation buffer; assay type: physicochemical; settings: 37 °C, radio-RP-HPLC
Protocol: (§1) The stability of the radiotracers was assessed in saline and human serum at 37 °C to mimic physiological conditions. Approximately 1.5 mCi of the radiotracer, prepared in 100-150 µL of saline, was added to 0.5 mL of either saline or human serum in separate microcentrifuge tubes. The mixtures were gently vortexed and then incubated at 37 °C in an incubator. At predetermined time-points (1, 2, and 3 h), 100 µL aliquots were collected from the incubation mixtures for analysis. For serum samples, proteins were removed by adding 100 µL of saline and 50 µL of ethanol, followed by ultrafiltration using 10 kDa centrifugal filters made of regenerative cellulose membranes. The filtration process was performed by centrifugation at 14,000 rpm for 10 min and repeated once more to ensure complete protein removal. The filtrate was collected for analysis. The radiochemical integrity of the radiotracer in both saline and serum was evaluated using radio-RP-HPLC.

[2] = In vitro stability of radiotracers in human serum; assay type: in vitro ADME; settings: radio-RP-HPLC after ultrafiltration (10 kDa)
Protocol: as §1

Ex vivo biodistribution = assay type: in vivo, mice; settings: mouse, in vivo, total radioactivity, KPC syngeneic tumor, 60 min p.i., mean ± SEM (n = 5)
Protocol: (§2) Mice with 100-200 mm^3 tumor volume were used for ex vivo biodistribution studies. For radiotracer pharmacokinetics and dosimetry studies, mice with Panc1 tumor xenograft received ~80 µCi (2.96 MBq) [^68Ga]AJ201 and were sacrificed at pre-determined time points (5, 30, 60, 90 and 120 min). All other mice were injected with ~50 µCi (1.85 MBq; 0.2 to 0.5 nmol) Ga-68 labeled radiotracer and were sacrificed at 60 min. The selected tissues were collected, weighed, counted, and their %ID/g values calculated for biodistribution analysis. For pharmacokinetics and dosimetry studies, selected tissues included blood, muscle, tumor, thymus, heart, lung, liver, pancreas, stomach, small intestine, large intestine, spleen, adrenals, kidney, bladder, femur, brain and tumor xenografts. For other studies, selected tissues were blood, muscle, tumor, heart, lung, liver, pancreas, small intestine, spleen, kidney.

KPC syngeneic tumor = test: Ex vivo biodistribution; assay type: in vivo, mice; settings: KPC syngeneic tumor; 60 min p.i.; mean ± SEM (n = 5)
Protocol: as §2

[3] = Human radiation dosimetry estimates (MIRDCalc)
Description: Pharmacokinetic data obtained from biodistribution studies of Panc1 tumor-bearing mice were utilized to predict the time-integrated activity coefficients (TIACs, formerly known as residence times) of [^68Ga]AJ201 in humans, as previously described [28]-[30]. These TIAC estimates were then input into MIRDCalc to determine the absorbed dose coefficients for organs from ^68Ga using the ICRP adult female reference phantom (Table S4).

[4] = PET-MR imaging of Panc1 orthotopic tumor model; assay type: in vivo, mice; settings: both sexes, NSG, mouse, iv, total radioactivity, PET/MR 60 min p.i., ROI (n = 4)
Protocol: Animal studies were performed under Johns Hopkins University Animal Care and Use Committee (ACUC)-approved protocol (Principal investigator: Sridhar Nimmagadda, Ph.D. and Protocol number M021M175). Male and Female NSG mice (5-6 weeks old) were purchased from JHU immunocompromised core and used to establish xenografts by administering cells subcutaneously (top right flank, unless otherwise noted) to form various tumor models within 3-4 weeks. Following cell numbers were used: Panc1, AsPC1, BxPC3 (1 M), Hs766T and SU8686 (2 M), CFPAC and Panc1005 (5 M). Imaging or biodistribution studies (n = 3-5) were conducted on mice with tumor volumes of 100-200 mm^3. The Panc1 orthotopic tumor model was established by surgically implanting a 3-5 mm^3 section of Panc1 tumor xenograft directly onto the pancreas. The implanted tumors were allowed to grow and were ready for imaging after 10 days of implantation.
Mice having orthotopic panc1 tumors were injected intravenously with [^68Ga]AJ201 and PET images were acquired at 60 min after radiotracer injection for 10 min in 1 bed positions (full body) and whole-body MRI using a Simultaneous 7T Bruker PET-MR. The PET data were acquired, reconstructed, and corrected for radioactive decay using ParaVision 360 V2 by Bruker. The %ID per cc values were obtained after drawing ROI (regain of interest) in tumor and muscle using PMOD software. […]

[5] = absorbed dose coefficient, MIRDCalc, ICRP adult female reference phantom
[6] = absorbed dose coefficient, MIRDCalc, ICRP adult female reference phantom, listed as [68Ga]AJ201
[7] = predicted for humans from Panc1 mouse biodistribution

CC(C)C[C@@H]1NC(=O)[C@@H]2CSCCC(=O)N3CN(CN(C3)C(=O)CCSC[C@H](NC(=O)[C@H](CC(=O)O)NC(=O)[C@H](CCCCNC(=N)N)NC(=O)[C@H](C)NC(=O)CNC(=O)CN(C)C(=O)CN(C)C(=O)CN(C)C(=O)[C@H](CCCNC(=N)N)NC(=O)CNC(=O)CCOCCOCCNC(=O)CN3CCN(CC(=O)O)CCN(CC(=O)O)CC3)C(=O)N3C[C@H](O)C[C@H]3C(=O)N[C@@H](CC(C)C)C(=O)N[C@@H](C(C)C)C(=O)N[C@@H](CC(N)=O)C(=O)N3CCC[C@H]3C(=O)N[C@@H](CC(C)C)C(=O)N2)C(=O)CCSC[C@@H](C(N)=O)NC(=O)[C@H](CCCCNC(=N)N)NC(=O)[C@H](Cc2c[nH]c3ccccc23)NC(=O)[C@@H](CC(=O)O)NC(=O)[C@@H]2CCCN2C(=O)[C@H](Cc2c[nH]cn2)NC1=O [[^68Ga]AJ201, metal not drawn] ({NOTA-PEG2}-GR[Sar][Sar][Sar]GA[hArg]DC[Hyp]LVNPLCLHP[dD]W[hArg]C-NH2; linker 10-17-24 via TATA)
Time of stability in formulation buffer ([1]; 10% EtOH/saline): at least 3 h | Stability in saline (radio-HPLC finding) ([1]; saline, up to 3 h, ~1.5 mCi in 0.5 mL): stable without noticeable degradation or impurity formation | Stability in human serum (radio-HPLC finding) ([2]; 37 °C, 1, 2 and 3 h, ~1.5 mCi in 0.5 mL): stable without noticeable degradation or impurity formation | Time of stability in human serum ([2]; 37 °C): at least 3 h | tissue uptake at 1 h (Ex vivo biodistribution; 50 uCi, read-out: Bladder uptake): 74.9 ± 15.3 %ID/g | tissue uptake at 1 h (Ex vivo biodistribution; 50 uCi, read-out: Femur uptake): 0.71 ± 0.22 %ID/g | tissue uptake at 1 h (Ex vivo biodistribution; 50 uCi, read-out: Heart uptake): 0.3 ± 0.06 %ID/g | tissue uptake at 1 h (Ex vivo biodistribution; 50 uCi, read-out: Kidney uptake): 50.3 ± 9.75 %ID/g | tissue uptake at 1 h (Ex vivo biodistribution; 50 uCi, read-out: Liver uptake): 2.46 ± 0.77 %ID/g | tissue uptake at 1 h (Ex vivo biodistribution; 50 uCi, read-out: Lung uptake): 0.78 ± 0.13 %ID/g | tissue uptake at 1 h (Ex vivo biodistribution; 50 uCi, read-out: Muscle uptake): 0.28 ± 0.08 %ID/g | tissue uptake at 1 h (Ex vivo biodistribution; 50 uCi, read-out: Pancreas uptake): 0.22 ± 0.04 %ID/g | tissue uptake at 1 h (Ex vivo biodistribution; 50 uCi, read-out: Small intestine uptake): 0.62 ± 0.25 %ID/g | tissue uptake at 1 h (Ex vivo biodistribution; 50 uCi, read-out: Stomach uptake): 0.95 ± 0.26 %ID/g | tissue uptake at 1 h (Ex vivo biodistribution; 50 uCi, read-out: Tumor uptake): 1.51 ± 0.28 %ID/g | tissue to tissue ratio at 1 h (Ex vivo biodistribution; 50 uCi, read-out: Tumor/Muscle ratio): 6 ± 0.77 | tissue to tissue ratio at 1 h (Ex vivo biodistribution; 50 uCi, read-out: Tumor/Pancreas ratio): 6.67 ± 2.18 | tissue to tissue ratio at 1 h (Ex vivo biodistribution; 50 uCi, read-out: Tumor/blood ratio): 2.17 ± 0.46 | tissue uptake at 1 h (Ex vivo biodistribution; read-out: Blood uptake): 0.75 ± 0.15 %ID/g | tissue uptake at 1 h (Ex vivo biodistribution; read-out: Large Intestine uptake): 0.61 ± 0.28 %ID/g | tissue uptake at 1 h (Ex vivo biodistribution; read-out: Spleen uptake): 0.71 ± 0.3 %ID/g | Brain uptake (KPC syngeneic tumor): 0.04 ± 0.01 %ID/g | Organ dose, Adrenals [3, 5]: 0.06 rem/mCi | Organ dose, Bladder [3, 5]: 0.15 rem/mCi | Organ dose, Brain [3, 5]: 0.003215 rem/mCi | Organ dose, Femur [3, 5]: 0.01421 rem/mCi | Organ dose, Heart [3, 5]: 0.03275 rem/mCi | Organ dose, Kidney [3, 5]: 0.38 rem/mCi | Organ dose, Large Intestine [3, 5]: 0.01839 rem/mCi | Organ dose, Liver [3, 5]: 0.02398 rem/mCi | Organ dose, Lung [3, 5]: 0.04 rem/mCi | Organ dose, Muscle [3, 5]: 0.00962 rem/mCi | Organ dose, Pancreas [3, 5]: 0.02708 rem/mCi | Organ dose, Small intestine [3, 5]: 0.01639 rem/mCi | Organ dose, Spleen [3, 5]: 0.03644 rem/mCi | Organ dose, Stomach with contents [3, 5]: 0.0158 rem/mCi | Organ dose, Thymus [3, 5]: 0.02016 rem/mCi | Organ dose, Adrenals [3, 6]: 0.06253 rem/mCi | Organ dose, Bladder [3, 6]: 0.1513 rem/mCi | Organ dose, Kidney [3, 6]: 0.3885 rem/mCi | Organ dose, Lung [3, 6]: 0.04292 rem/mCi | Estimated effective dose equivalent ([3]; at 13 mCi dose, human estimate): less than 5 rem | Dose that can be safely administered for PET imaging ([3]; human estimate): 13 mCi | Residence time (TIAC), Adrenals [3, 7]: 0.0002761 h | Residence time (TIAC), Bladder [3, 7]: 0.006394 h | Residence time (TIAC), Blood [3, 7]: 0.05152 h | Residence time (TIAC), Brain [3, 7]: 0.0008446 h | Residence time (TIAC), Femur [3, 7]: 0.005607 h | Residence time (TIAC), Heart [3, 7]: 0.001764 h | Residence time (TIAC), Kidney [3, 7]: 0.08395 h | Residence time (TIAC), Large Intestine [3, 7]: 0.001341 h | Residence time (TIAC), Liver [3, 7]: 0.01723 h | Residence time (TIAC), Lung [3, 7]: 0.01099 h | Residence time (TIAC), Muscle [3, 7]: 0.07064 h | Residence time (TIAC), Pancreas [3, 7]: 0.0006321 h | Residence time (TIAC), Small intestine [3, 7]: 0.003647 h | Residence time (TIAC), Spleen [3, 7]: 0.002451 h | Residence time (TIAC), Stomach with contents [3, 7]: 0.0004823 h | Residence time (TIAC), Thymus [3, 7]: 0.0002384 h | tissue to tissue ratio at 1 h ([4]; tumor and muscle, read-out: Tumor-to-muscle ratio): 14.8 ± 4.46 | tissue to tissue ratio at 1 h ([4]; tumor and pancreas, read-out: Tumor-to-pancreas ratio): 10.3 ± 2.24
